Patent publication US20220298141A1, “ENZYME INHIBITORS” (KALVISTA PHARMACEUTICALS LIMITED, priority 2019, published 2022)

How the values were obtained:
[1] = target: T1, Human FXIa (Homo sapiens, UniProt P03951); assay: Determination of FXIa inhibitory activity in vitro (fluorogenic substrate Z-Gly-Pro-Arg-AFC); type: biochemical; settings: Selectivity, Human FXIa (Enzyme Research Laboratories), 25° C.
T1 construct: purchased Enzyme Research Laboratories

[2] = target: T2, Human Factor XIIa (Homo sapiens, UniProt P00748); assay: Determination of Factor XIIa inhibitory activity in vitro (fluorogenic substrate H-DPro-Phe-Arg-AFC); type: biochemical; settings: Human Factor XIIa (Enzyme Research Laboratories), 25° C., read-out: Human FXIIa IC50
T2 construct: purchased Enzyme Research Laboratories
T2 sequence (P00748 373-615 limits assumed): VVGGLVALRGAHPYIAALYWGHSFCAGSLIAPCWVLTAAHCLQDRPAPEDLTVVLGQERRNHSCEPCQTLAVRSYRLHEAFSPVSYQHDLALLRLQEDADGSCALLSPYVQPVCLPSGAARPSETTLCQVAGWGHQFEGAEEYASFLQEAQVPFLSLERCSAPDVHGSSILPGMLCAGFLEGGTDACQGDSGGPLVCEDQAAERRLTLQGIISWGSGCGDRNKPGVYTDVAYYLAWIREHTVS
T2 sequence (P00748 20-372 partner limits assumed): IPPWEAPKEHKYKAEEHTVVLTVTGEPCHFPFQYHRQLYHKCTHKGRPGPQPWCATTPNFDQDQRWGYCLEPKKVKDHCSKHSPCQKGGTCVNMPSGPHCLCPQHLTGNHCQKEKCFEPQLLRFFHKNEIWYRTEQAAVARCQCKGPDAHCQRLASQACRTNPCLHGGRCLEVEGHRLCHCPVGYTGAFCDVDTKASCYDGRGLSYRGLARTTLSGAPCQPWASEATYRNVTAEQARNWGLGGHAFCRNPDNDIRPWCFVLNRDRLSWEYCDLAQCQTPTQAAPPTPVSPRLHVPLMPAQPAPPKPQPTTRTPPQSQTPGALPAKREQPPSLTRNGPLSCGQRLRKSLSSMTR
Procedure: Determination of the % Inhibition for FXIIa
Factor XIIa inhibitory activity in vitro was determined using standard published methods (see e.g. Shori et al., Biochem. Pharmacol., 1992, 43, 1209; Baeriswyl et al., ACS Chem. Biol., 2015, 10 (8) 1861; Bouckaert et al., European Journal of Medicinal Chemistry 110 (2016) 181). Human Factor XIIa (Enzyme Research Laboratories) was incubated at 25° C. with the fluorogenic substrate H-DPro-Phe-Arg-AFC and various concentrations of the test compound. Residual enzyme activity (initial rate of reaction) was determined by measuring the […] and the IC50 value for the test compound was determined.

T1 sequence (P03951 388-625 limits assumed): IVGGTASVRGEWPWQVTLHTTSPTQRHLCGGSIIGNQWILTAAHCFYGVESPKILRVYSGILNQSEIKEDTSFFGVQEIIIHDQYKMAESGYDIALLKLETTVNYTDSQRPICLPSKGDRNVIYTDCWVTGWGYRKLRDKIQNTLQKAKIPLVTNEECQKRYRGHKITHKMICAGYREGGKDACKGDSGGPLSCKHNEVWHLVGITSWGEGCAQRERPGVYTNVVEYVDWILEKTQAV
T1 sequence (P03951 19-387 partner limits assumed): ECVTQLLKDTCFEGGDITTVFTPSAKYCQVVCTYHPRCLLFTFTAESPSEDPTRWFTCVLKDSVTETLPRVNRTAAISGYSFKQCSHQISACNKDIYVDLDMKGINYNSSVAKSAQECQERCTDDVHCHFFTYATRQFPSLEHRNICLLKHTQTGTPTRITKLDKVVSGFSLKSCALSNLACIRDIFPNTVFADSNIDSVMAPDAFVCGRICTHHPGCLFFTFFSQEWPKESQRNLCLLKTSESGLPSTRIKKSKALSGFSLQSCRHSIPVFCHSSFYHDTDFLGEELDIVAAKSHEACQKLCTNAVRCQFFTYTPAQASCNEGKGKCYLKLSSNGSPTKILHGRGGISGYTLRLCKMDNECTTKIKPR

Compound	IC50 [1]	IC50 [2]
Nc1nccc2cc(CNC(=O)c3cc(Cl)cnc3NCc3ccccn3)ccc12 [Example 1.43]	> 40 µM	3 to 10 µM
Nc1nccc2cc(CNC(=O)c3cc(Cl)cnc3Nc3ccc(N4CCOCC4)cc3)ccc12 [Example 1.44]	> 40 µM	10 to 40 µM
Nc1nccc2cc(CNC(=O)c3cc(Cl)cnc3NCC(=O)N3CCOCC3)ccc12 [Example 1.45]	> 40 µM	10 to 40 µM
Nc1nccc2cc(CNC(=O)c3cc(Cl)cnc3NCC(=O)NC3CCCC3)ccc12 [Example 1.46]	> 40 µM	10 to 40 µM
CN1C(C)(C)CC(Nc2ncc(Cl)cc2C(=O)NCc2ccc3c(N)nccc3c2)CC1(C)C [Example 1.47]	> 40 µM	1 to 3 µM
CN1CCN(c2cc(CNc3ncc(Cl)cc3C(=O)NCc3ccc4c(N)nccc4c3)ccn2)CC1 [Example 1.48]	> 40 µM	1 to 3 µM
CC(C)N1CCC(CNc2ncc(Cl)cc2C(=O)NCc2ccc3c(N)nccc3c2)CC1 [Example 1.49]	> 40 µM	0.3 to 1 µM
Nc1nccc2cc(CNC(=O)c3cc(Cl)cnc3NCC3CCN(C4CC4)CC3)ccc12 [Example 1.50, N-((1-aminoisoquinolin-6-yl)methyl)-5-chloro-2-(((1-cyclopropylpiperidin-4-yl)methyl)amino)nicotinamide]	> 40 µM	0.3 to 1 µM
CCN1CCC(CNc2ncc(Cl)cc2C(=O)NCc2ccc3c(N)nccc3c2)CC1 [Example 1.51, N-((1-aminoisoquinolin-6-yl)methyl)-5-chloro-2-(((1-ethylpiperidin-4-yl)methyl)amino)nicotinamide]	> 40 µM	< 0.3 µM
Nc1nccc2cc(CNC(=O)c3cc(Cl)cnc3NCC34CCN(CC3)CC4)ccc12 [Example 1.52]	> 40 µM	0.3 to 1 µM
Nc1nccc2cc(CNC(=O)c3cc(Cl)cnc3NCC3CCN(C4CCCC4)CC3)ccc12 [Example 1.53]	> 40 µM	0.3 to 1 µM
COCCN1CCC(CNc2ncc(Cl)cc2C(=O)NCc2ccc3c(N)nccc3c2)CC1 [Example 1.54, N-((1-aminoisoquinolin-6-yl)methyl)-5-chloro-2-(((1-(2-methoxyethyl)piperidin-4-yl)methyl)amino)nicotinamide]	> 40 µM	0.3 to 1 µM
CC(C)CN1CCC(CNc2ncc(Cl)cc2C(=O)NCc2ccc3c(N)nccc3c2)CC1 [Example 1.55]	> 40 µM	0.3 to 1 µM
Nc1nccc2cc(CNC(=O)c3cc(Cl)cnc3NCC3CCN(CC4CC4)CC3)ccc12 [Example 1.56]	> 40 µM	0.3 to 1 µM
Nc1nccc2cc(CNC(=O)c3cc(Cl)cnc3NCC3CCN(CC(F)(F)F)CC3)ccc12 [Example 1.57]	> 40 µM	3 to 10 µM
Nc1nccc2cc(CNC(=O)c3cc(Cl)cnc3NCC3CCN(C4CCOCC4)CC3)ccc12 [Example 1.58]	> 40 µM	1 to 3 µM
Nc1nccc2cc(CNC(=O)c3cc(Cl)cnc3NCC3CCn4ccnc4C3)ccc12 (stereo not shown) [Example 1.59, N-((1-aminoisoquinolin-6-yl)methyl)-5-chloro-2-(((5,6,7,8-tetrahydroimidazo[1,2-a]pyridin-7-yl)methyl)amino)nicotinamide]	> 40 µM	0.3 to 1 µM
CN1CCC(Nc2ncc(Cl)cc2C(=O)NCc2ccc3c(N)nccc3c2)CC1 [Example 1.60]	> 40 µM	1 to 3 µM
CC(=O)N1CCC(CNc2ncc(Cl)cc2C(=O)NCc2ccc3c(N)nccc3c2)CC1 [Example 1.61]	> 40 µM	3 to 10 µM
CS(=O)(=O)N1CCC(CNc2ncc(Cl)cc2C(=O)NCc2ccc3c(N)nccc3c2)CC1 [Example 1.62]	> 40 µM	3 to 10 µM
Nc1nccc2cc(CNC(=O)c3cc(Cl)cnc3OCCN3CCCC3)ccc12 [Example 22.08]		10 to 40 µM

Compound	IC50 [1]	IC50 [2]
CN(C)CCOc1ncc(Cl)cc1C(=O)NCc1ccc2c(N)nccc2c1 [Example 22.09]		10 to 40 µM
CCN(CC)CCCOc1ncc(Cl)cc1C(=O)NCc1ccc2c(N)nccc2c1 [Example 22.10]		10 to 40 µM
Nc1nccc2cc(CNC(=O)c3cc(Cl)cnc3OCCCN3CCCCC3)ccc12 [Example 22.11]		10 to 40 µM
Nc1nccc2cc(CNC(=O)c3cc(Cl)cnc3Oc3ccc(N4CCNCC4)cc3)ccc12 [Example 22.12]		3 to 10 µM
Nc1nccc2cc(CNC(=O)c3cc(Cl)cnc3Oc3cccc(N4CCNCC4)c3)ccc12 [Example 22.13]		10 to 40 µM
CN(Cc1ccccc1)c1ncc(Cl)cc1C(=O)NCc1ccc2c(N)nccc2c1 [Example 28.01, N-((1-aminoisoquinolin-6-yl)methyl)-2-(benzyl(methyl)amino)-5-chloronicotinamide]		10 to 40 µM
CN(CC1CCN(c2ccncc2)CC1)c1ncc(Cl)cc1C(=O)NCc1ccc2c(N)nccc2c1 [Example 28.02, N-((1-aminoisoquinolin-6-yl)methyl)-5-chloro-2-(methyl((1-(pyridin-4-yl)piperidin-4-yl)methyl)amino)nicotinamide]		10 to 40 µM
CN(C)CCCOc1cccc(CN(C)c2ncc(Cl)cc2C(=O)NCc2ccc3c(N)nccc3c2)c1 [Example 28.03, N-((1-aminoisoquinolin-6-yl)methyl)-5-chloro-2-((3-(3-(dimethylamino)propoxy)benzyl)(methyl)amino)nicotinamide]		3 to 10 µM
CN(c1ncc(Cl)cc1C(=O)NCc1ccc2c(N)nccc2c1)C1CCOCC1 [Example 28.04, N-((1-aminoisoquinolin-6-yl)methyl)-5-chloro-2-(methyl(tetra hydro-2H-pyran-4-yl)amino)nicotinamide]		10 to 40 µM
CN(c1ccccc1)c1ncc(Cl)cc1C(=O)NCc1ccc2c(N)nccc2c1 [Example 28.05, N-((1-aminoisoquinolin-6-yl)methyl)-5-chloro-2-(methyl(phenyl)amino)nicotinamide]		10 to 40 µM
CN(c1cccc(Cl)c1)c1ncc(Cl)cc1C(=O)NCc1ccc2c(N)nccc2c1 [Example 28.06]		10 to 40 µM
Nc1nccc2cc(CNC(=O)c3cncc(-c4ccccc4)c3)ccc12 [Example 29.01]		10 to 40 µM
Nc1nccc2cc(CNC(=O)c3cncc(-c4ccnn4Cc4ccccc4)c3)ccc12 [Example 29.03, N-((1-aminoisoquinolin-6-yl)methyl)-5-(1-benzyl-1H-pyrazol-5-yl)nicotinamide]		3 to 10 µM
Nc1nccc2cc(CNC(=O)c3cncc(CN4CCNCC4)c3)ccc12 [Example 29.04]		10 to 40 µM
Nc1nccc2cc(CNC(=O)c3cccc(CN4CCN(CC5CCCC5)CC4)c3)ccc12 [Example 29.09]		3 to 10 µM
CN1CCN(Cc2cc(Cl)cc(C(=O)NCc3ccc4c(N)nccc4c3)c2)CC1 [Example 29.10]		3 to 10 µM
Nc1nccc2cc(CNC(=O)c3cc(Cl)cc(CN4CCN(CC5CCCC5)CC4)c3)ccc12 [Example 29.11, N-((1-aminoisoquinolin-6-yl)methyl)-3-chloro-5-((4-(cyclopentylmethyl)piperazin-1-yl)methyl)benzamide]		3 to 10 µM
C[C@@H]1CCC[C@H](C)N1CC(=O)Nc1cc(Cl)cc(C(=O)NCc2ccc3c(N)nccc3c2)c1 [Example 32.05]		3 to 10 µM
COc1ccc(-n2cc(C(F)F)nn2)c(CNC(=O)c2nccnc2NCC2CCN(C)CC2)c1F [Example 33.22]		10 to 40 µM
Cc1cc(CN)cc(C)c1CNC(=O)c1nccnc1NCC1CCN(C)CC1 [Example 33.23]		10 to 40 µM
